# Results as given in ChEMBL document CHEMBL6182942, “Discovery of a Selective, Novel TGF-βR1 Inhibitor GFH018 for the Treatment of Solid Tumors” (J Med Chem, 2025).
# Active and inactive are the calls of the source. The rule behind the calls is not given here.
# Tests used:
# [1] = AUC (0 to last) in CD-1 mouse at 75 mg/kg, po via gavage by LC-MS/MS analysis; type: ADME, organism-based; details: in vivo
# [2] = Mutagenicity in Salmonella typhimurium TA98 by Ames test; type: toxicity; details: salmonella enterica subsp. enterica serovar typhimurium
# [3] = Drug metabolism in mouse hepatocytes; type: ADME, cell-based, Hepatocyte
# [4] = Half life in CD-1 mouse at 5 mg/kg, po via gavage by LC-MS/MS analysis; type: ADME, organism-based; details: in vivo
# [5] = Drug metabolism in monkey hepatocytes; type: ADME, cell-based, Macaca mulatta, Hepatocyte; details: rhesus monkey
# [6] = Protein binding in human plasma at 0.2 to 10 uM measured after 4 hrs by equilibrium dialysis based LC-MS/MS analysis; type: ADME, cell-free; details: dose 0.2-10 µM, read-out: PPB (converted)
# [7] = Mutagenicity in Salmonella typhimurium TA98 in presence of liver S9 fraction by Ames test; type: toxicity, subcellular; details: salmonella enterica subsp. enterica serovar typhimurium
# [8] = Metabolic stability in mouse liver microsomes assessed as parent compound remaining at 1 uM preincubated for 5 mins followed by NADPH addition by LC-MS/MS analysis; type: ADME, Microsome; details: read-out: Stability
# Cytochrome P450 1A2 = Cytochrome P450 1A2 (Homo sapiens, UniProt P05177); test: Inhibition of CYP1A2 in human liver microsomes using phenacetin as substrate preincubated for 10 mins followed by NADPH regeneration system addition and measured after 10 mins by LC-MS/MS analysis; type: ADME, Microsome
# Sequence of Cytochrome P450 1A2 (P05177 whole entry): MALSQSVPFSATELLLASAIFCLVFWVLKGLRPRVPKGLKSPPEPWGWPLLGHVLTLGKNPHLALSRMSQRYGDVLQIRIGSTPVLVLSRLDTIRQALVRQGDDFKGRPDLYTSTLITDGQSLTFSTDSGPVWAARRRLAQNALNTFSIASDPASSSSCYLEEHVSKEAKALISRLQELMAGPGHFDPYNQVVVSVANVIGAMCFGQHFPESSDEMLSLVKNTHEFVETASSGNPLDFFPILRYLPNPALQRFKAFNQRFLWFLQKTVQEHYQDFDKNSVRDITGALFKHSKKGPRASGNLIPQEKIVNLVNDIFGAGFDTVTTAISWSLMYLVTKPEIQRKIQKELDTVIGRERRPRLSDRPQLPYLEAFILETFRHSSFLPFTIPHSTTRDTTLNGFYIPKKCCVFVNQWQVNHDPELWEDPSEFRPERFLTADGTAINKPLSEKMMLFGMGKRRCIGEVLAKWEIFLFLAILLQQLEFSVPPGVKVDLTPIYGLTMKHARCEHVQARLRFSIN
# [9] = Half life in Sprague-Dawley rat at 1 mg/kg, iv by LC-MS/MS analysis; type: ADME, organism-based; details: in vivo
# [10] = Intrinsic clearance in mouse hepatocytes at 1 uM measured after 90 mins by LC-MS/MS analysis; type: ADME, cell-based, Hepatocyte; details: read-out: CLH
# [11] = Clearance in Beagle dog at 1 mg/kg, iv by LC-MS/MS analysis; type: ADME, organism-based, Canis lupus familiaris; details: in vivo
# [12] = Oral bioavailability in Sprague-Dawley rat at 30 mg/kg administered via gavage by LC-MS/MS analysis; type: ADME, organism-based; details: in vivo
# [13] = AUC (0 to last) in Beagle dog at 5 mg/kg, po by LC-MS/MS analysis; type: ADME, organism-based, Canis lupus familiaris; details: in vivo
# MDR1 = test: Efflux ratio of apparent permeability in dog MDCK-MDR1 cells at 2 uM measured over 150 mins by LC-MS/MS analysis; type: ADME, cell-based, Canis lupus familiaris
# [14] = Toxicity in mouse CT26 cell implanted BALB/c mouse assessed as change in body weight at 50 mg/kg, po administered twice daily; type: organism-based; details: in vivo
# [15] = Half life in Beagle dog at 5 mg/kg, po by LC-MS/MS analysis; type: ADME, organism-based, Canis lupus familiaris; details: in vivo
# [16] = Toxicity in mouse CT26 cell implanted BALB/c mouse assessed as change in body weight at 50 mg/kg, po administered twice daily in presence of antimouse-PD-L1 antibody; type: organism-based; details: in vivo
# [17] = Drug metabolism in rat liver microsomes; type: ADME, Microsome
# [18] = Mutagenicity in Salmonella typhimurium TA100 in presence of liver S9 fraction by Ames test; type: toxicity, subcellular; details: salmonella enterica subsp. enterica serovar typhimurium
# [19] = AUC (0 to last) in Sprague-Dawley rat at 1 mg/kg, iv by LC-MS/MS analysis; type: ADME, organism-based; details: in vivo
# [20] = Volume of distribution at steady state in CD-1 mouse at 1 mg/kg, iv by LC-MS/MS analysis; type: ADME, organism-based; details: in vivo, read-out: Vdss
# [21] = Protein binding in Beagle dog plasma at 0.2 to 10 uM measured after 4 hrs by equilibrium dialysis based LC-MS/MS analysis; type: ADME, cell-free, Canis lupus familiaris; details: dose 0.2-10 µM, read-out: PPB (converted)
# [22] = Drug metabolism in dog hepatocytes; type: ADME, cell-based, Canis lupus familiaris, Hepatocyte
# [23] = Half life in Beagle dog at 1 mg/kg, iv by LC-MS/MS analysis; type: ADME, organism-based, Canis lupus familiaris; details: in vivo
# NIH3T3 = test: Antiproliferative activity against mouse NIH/3T3 cells by celltitter-glo assay; type: functional, cell-based
# Cytochrome P450 3A4 = Cytochrome P450 3A4 (Homo sapiens, UniProt P08684); test: Inhibition of CYP3A4 in human liver microsomes using midazolam as substrate preincubated for 10 mins followed by NADPH regeneration system addition and measured after 3 mins by LC-MS/MS analysis; type: ADME, Microsome
# Sequence of Cytochrome P450 3A4 (P08684 whole entry): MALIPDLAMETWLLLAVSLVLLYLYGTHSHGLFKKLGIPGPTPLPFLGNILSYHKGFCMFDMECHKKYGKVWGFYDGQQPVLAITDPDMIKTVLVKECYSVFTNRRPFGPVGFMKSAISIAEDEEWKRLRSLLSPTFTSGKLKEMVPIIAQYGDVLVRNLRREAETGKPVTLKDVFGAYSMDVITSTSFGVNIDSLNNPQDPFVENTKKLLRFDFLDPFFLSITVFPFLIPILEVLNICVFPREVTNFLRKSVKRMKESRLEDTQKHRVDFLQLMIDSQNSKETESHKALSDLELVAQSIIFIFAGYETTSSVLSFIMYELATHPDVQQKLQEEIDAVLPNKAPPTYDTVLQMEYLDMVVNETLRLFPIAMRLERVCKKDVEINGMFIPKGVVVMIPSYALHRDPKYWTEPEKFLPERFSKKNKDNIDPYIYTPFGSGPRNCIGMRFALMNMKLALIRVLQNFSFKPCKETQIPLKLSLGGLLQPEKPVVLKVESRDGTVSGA
# [24] = Intrinsic clearance in dog hepatocytes at 1 uM measured after 90 mins by LC-MS/MS analysis; type: ADME, cell-based, Canis lupus familiaris, Hepatocyte; details: read-out: CLH
# [25] = Cmax in Sprague-Dawley rat at 30 mg/kg, po administered via gavage by LC-MS/MS analysis; type: ADME, organism-based; details: in vivo
# [26] = target: Voltage-gated inwardly rectifying potassium channel KCNH2 (Homo sapiens, UniProt Q12809); test: Inhibition of human ERG stably expressed in HEK293 cells measured at holding potential of -80 mV by manual patch clamp assay; type: toxicity, cell-based
# Sequence of Voltage-gated inwardly rectifying potassium channel KCNH2 (Q12809 whole entry): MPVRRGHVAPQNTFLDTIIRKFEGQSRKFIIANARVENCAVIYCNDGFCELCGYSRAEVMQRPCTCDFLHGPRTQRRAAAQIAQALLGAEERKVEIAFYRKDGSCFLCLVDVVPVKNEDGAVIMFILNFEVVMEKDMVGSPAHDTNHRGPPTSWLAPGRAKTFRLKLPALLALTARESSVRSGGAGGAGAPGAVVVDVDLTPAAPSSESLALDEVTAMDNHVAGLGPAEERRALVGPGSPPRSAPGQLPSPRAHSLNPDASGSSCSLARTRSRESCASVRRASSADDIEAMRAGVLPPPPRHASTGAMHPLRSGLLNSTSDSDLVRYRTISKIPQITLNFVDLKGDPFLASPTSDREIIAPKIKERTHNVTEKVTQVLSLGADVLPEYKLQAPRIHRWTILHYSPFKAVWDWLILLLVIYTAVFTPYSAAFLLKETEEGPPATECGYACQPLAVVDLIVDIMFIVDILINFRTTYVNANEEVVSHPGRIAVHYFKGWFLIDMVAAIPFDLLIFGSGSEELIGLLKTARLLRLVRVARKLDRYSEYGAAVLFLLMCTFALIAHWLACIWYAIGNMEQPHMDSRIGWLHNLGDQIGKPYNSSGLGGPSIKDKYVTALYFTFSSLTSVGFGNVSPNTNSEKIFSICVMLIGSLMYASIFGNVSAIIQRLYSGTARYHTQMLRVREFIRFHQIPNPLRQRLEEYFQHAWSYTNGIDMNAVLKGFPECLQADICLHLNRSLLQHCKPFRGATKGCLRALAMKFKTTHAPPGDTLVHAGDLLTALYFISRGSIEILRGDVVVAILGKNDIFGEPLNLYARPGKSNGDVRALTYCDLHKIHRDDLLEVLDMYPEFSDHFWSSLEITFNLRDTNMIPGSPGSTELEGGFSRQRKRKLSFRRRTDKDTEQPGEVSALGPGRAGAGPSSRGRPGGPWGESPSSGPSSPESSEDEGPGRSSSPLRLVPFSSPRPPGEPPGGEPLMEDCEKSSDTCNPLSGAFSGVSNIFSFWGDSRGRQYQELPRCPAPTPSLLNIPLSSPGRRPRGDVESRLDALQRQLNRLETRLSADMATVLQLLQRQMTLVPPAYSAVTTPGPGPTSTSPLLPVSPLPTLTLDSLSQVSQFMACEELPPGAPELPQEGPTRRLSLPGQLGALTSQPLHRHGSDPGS
# [27] = Toxicity in mouse H22 cell implanted BALB/c mouse assessed as change in body weight at 15 to 50 mg/kg, po administered twice daily for 11 days measured daily during compound dosing; type: organism-based; details: in vivo, 264 h, dose 15-50 mg/kg, time 11 day
# [28] = Mutagenicity in Salmonella typhimurium TA100 by Ames test; type: toxicity; details: salmonella enterica subsp. enterica serovar typhimurium
# T-cell = test: Immunostimulatory activity in TGFbeta/anti-CD3 stimulated BALB/c mouse naive T cells assessed as reduction in Treg induction at 0.1 to 10 uM measured after 4 days by immunostaining based flow cytometry; type: functional; details: dose 0.1-10 µM, time 4.0 day
# CD14-positive cell = test: Immunostimulatory activity in human PBMC derived M-CSF stimulated CD14-positive cells assessed as increase in TNFalpha level at 0.1 to 10 uM supplemented with fresh medium containing compound on day 1, 3 and 5 followed by M-CSF/IL-4/IL-13 stimulation for 2 days with subsequent LPS induction and measured after 16 hrs; type: functional, cell-based; details: dose 0.1-10 µM, time 7.0 day
# [29] = Drug metabolism in mouse liver microsomes; type: ADME, Microsome
# Cytochrome P450 2C9 = Cytochrome P450 2C9 (Homo sapiens, UniProt P11712); test: Inhibition of CYP2C9 in human liver microsomes using diclofenac as substrate preincubated for 10 mins followed by NADPH regeneration system addition and measured after 10 mins by LC-MS/MS analysis; type: ADME, Microsome
# Sequence of Cytochrome P450 2C9 (P11712 whole entry): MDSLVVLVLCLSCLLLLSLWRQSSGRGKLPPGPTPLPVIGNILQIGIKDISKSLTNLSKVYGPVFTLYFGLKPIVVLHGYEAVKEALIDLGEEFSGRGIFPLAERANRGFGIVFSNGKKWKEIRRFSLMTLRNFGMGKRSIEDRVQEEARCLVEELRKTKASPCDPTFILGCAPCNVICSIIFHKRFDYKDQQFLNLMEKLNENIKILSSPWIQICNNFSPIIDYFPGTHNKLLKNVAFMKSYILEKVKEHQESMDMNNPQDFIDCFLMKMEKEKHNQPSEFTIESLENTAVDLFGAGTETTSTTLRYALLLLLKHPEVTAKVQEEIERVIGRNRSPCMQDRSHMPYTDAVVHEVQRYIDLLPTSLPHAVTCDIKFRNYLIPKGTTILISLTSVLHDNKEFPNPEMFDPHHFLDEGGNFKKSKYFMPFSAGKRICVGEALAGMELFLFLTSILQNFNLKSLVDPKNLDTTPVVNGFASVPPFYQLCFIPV
# [30] = Oral bioavailability in CD-1 mouse at 75 mg/kg via gavage by LC-MS/MS analysis; type: ADME, organism-based; details: in vivo
# [31] = Half life in Sprague-Dawley rat at 30 mg/kg, po administered via gavage by LC-MS/MS analysis; type: ADME, organism-based; details: in vivo
# [32] = target: Mitogen-activated protein kinase 14 (Homo sapiens, UniProt Q16539); test: Inhibition of p38alpha (unknown origin) measured after 40 mins in presence of [gamma-33P]ATP by microbeta liquid scintillation counting analysis; type: toxicity
# Sequence of Mitogen-activated protein kinase 14 (Q16539 whole entry): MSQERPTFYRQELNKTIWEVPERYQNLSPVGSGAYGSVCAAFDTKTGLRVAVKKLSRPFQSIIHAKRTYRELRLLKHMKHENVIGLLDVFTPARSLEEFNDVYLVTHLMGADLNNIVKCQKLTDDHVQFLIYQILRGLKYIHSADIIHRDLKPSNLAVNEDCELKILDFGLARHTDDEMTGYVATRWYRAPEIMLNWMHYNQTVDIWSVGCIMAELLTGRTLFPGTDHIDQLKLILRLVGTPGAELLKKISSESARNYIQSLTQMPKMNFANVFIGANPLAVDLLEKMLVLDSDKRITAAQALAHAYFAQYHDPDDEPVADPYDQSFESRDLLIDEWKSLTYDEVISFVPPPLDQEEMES
# [33] = Protein binding in Sprague-Dawley rat plasma at 0.2 to 10 uM measured after 4 hrs by equilibrium dialysis based LC-MS/MS analysis; type: ADME, cell-free; details: dose 0.2-10 µM, read-out: PPB (converted)
# [34] = Cmax in CD-1 mouse at 75 mg/kg, po via gavage by LC-MS/MS analysis; type: ADME, organism-based; details: in vivo
# [35] = Drug metabolism in monkey liver microsomes; type: ADME, Macaca mulatta, Microsome; details: rhesus monkey
# [36] = Drug metabolism in human hepatocytes; type: ADME, cell-based, Hepatocyte
# Cytochrome P450 2B6 = Cytochrome P450 2B6 (Homo sapiens, UniProt P20813); test: Inhibition of CYP2B6 in human liver microsomes using bupropion as substrate preincubated for 10 mins followed by NADPH regeneration system addition and measured after 10 mins by LC-MS/MS analysis; type: ADME, Microsome
# Sequence of Cytochrome P450 2B6 (P20813 whole entry): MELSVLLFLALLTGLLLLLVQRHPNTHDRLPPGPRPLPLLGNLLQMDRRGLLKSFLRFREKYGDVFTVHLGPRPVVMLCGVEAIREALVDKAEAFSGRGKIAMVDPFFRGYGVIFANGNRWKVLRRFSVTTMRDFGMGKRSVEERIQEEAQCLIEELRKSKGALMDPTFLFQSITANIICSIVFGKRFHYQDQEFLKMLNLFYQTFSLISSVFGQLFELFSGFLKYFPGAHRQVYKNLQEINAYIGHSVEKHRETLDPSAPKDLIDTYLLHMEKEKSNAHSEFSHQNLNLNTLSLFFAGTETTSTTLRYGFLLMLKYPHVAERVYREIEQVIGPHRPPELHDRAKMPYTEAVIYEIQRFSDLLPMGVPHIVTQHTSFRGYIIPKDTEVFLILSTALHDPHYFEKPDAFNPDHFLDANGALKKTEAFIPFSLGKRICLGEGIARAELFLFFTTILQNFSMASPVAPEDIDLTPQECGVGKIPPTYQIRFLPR
# [37] = Volume of distribution at steady state in Beagle dog at 1 mg/kg, iv by LC-MS/MS analysis; type: ADME, organism-based, Canis lupus familiaris; details: in vivo, read-out: Vdss
smiles,measurement,setting,value
Cc1cccc(-c2nn3c(c2-c2ccc4ncnn4c2/C=C/C(N)=O)CCC3)n1,AUClast,[1],18137 nM.hr/ml
same,Activity,[2],Non-toxic
same,Drug metabolism,[3],metabolite_detected
same,half-life,[4],55 min
same,Drug metabolism,[5],metabolite_detected
same,"fraction unbound at 4 h, up to 10 µM",[6],0.556
same,Activity,[7],Non-toxic
same,remaining at 1 µM,[8],20.7%
same,IC50,Cytochrome P450 1A2,> 100 µM
same,half-life,[9],52.2 min
same,"CLint scaled at […], 1 µM",[10],298 mL/min/kg
same,clearance,[11],9.29 mL/min/kg
same,bioavailability,[12],29.9%
same,AUClast,[13],18284 nM.hr/ml
same,"efflux ratio at 2.5 h, 2 µM",MDR1,70.7
same,Activity,[14],Non-toxic
same,half-life,[15],170 min
same,Activity,[16],Non-toxic
same,Drug metabolism,[17],metabolite_detected
same,Activity,[18],Non-toxic
same,AUClast,[19],1332 nM.hr/ml
same,Vd,[20],1.4 L/kg
same,"fraction unbound at 4 h, up to 10 µM",[21],0.476
same,Drug metabolism,[22],metabolite_detected
same,half-life,[23],190 min
same,IC50,NIH3T3,730 nM
same,IC50,Cytochrome P450 3A4,> 100 µM
same,"CLint scaled at […], 1 µM",[24],< 17.1 mL/min/kg
same,Cmax,[25],9553 nM/ml
same,IC50,[26],> 30 µM
same,Activity,[27],Non-toxic
same,Activity,[28],Non-toxic
same,Activity,T-cell,Active
same,Activity,CD14-positive cell,Active
same,Drug metabolism,[29],metabolite_detected
same,IC50,Cytochrome P450 2C9,> 100 µM
same,bioavailability,[30],36.8%
same,half-life,[31],121 min
same,IC50,[32],2650 nM
same,"fraction unbound at 4 h, up to 10 µM",[33],0.376
same,Cmax,[34],24233 nM/ml
same,Drug metabolism,[35],metabolite_detected
same,Drug metabolism,[36],metabolite_detected
same,IC50,Cytochrome P450 2B6,> 100 µM
same,Vd,[37],0.961 L/kg
